Measured values: ChEMBL document CHEMBL4613212, “Insights of synthetic analogues of anti-leprosy agents” (Bioorg Med Chem, 2019)
In brackets after ≈: the same amount, converted by molar mass.

How the values were obtained:
[1] = test system: Mycobacterium leprae; assay: Anti-leprotic activity against Mycobacterium leprae infected in CBA mouse assessed as number of Mycobacterium leprae in paw pads at 10 mg/kg administrated 5 times a week and measured 7.5 months post infection (reference value: 3.91 +/- 0.33 10^5); type: functional
[2] = test system: Mycobacterium leprae; assay: Anti-leprotic activity against Mycobacterium leprae infected in CBA mouse assessed as number of Mycobacterium leprae in paw pads at 30 mg/kg administrated 5 times a week and measured 7.5 months post infection (reference value: 3.91 +/- 0.33 10^5); type: functional
[3] = test system: Mycobacterium leprae; assay: Anti-leprotic activity against Mycobacterium leprae infected in 538 CBA mouse assessed as number of Mycobacterium leprae in paw pads at 4 mg/kg administrated via gastric tube 5 times a week and measured 7 months post infection; type: functional
[4] = test system: Mycobacterium leprae; assay: Anti-leprotic activity against Mycobacterium leprae primary cultures at 4 weeks assessed as ATP level per 10^7 cells at 0.005 mg/L measured by bioluminescence assay (reference value: 314 +/- 46 pg); type: functional
[5] = test system: Plasmodium berghei; assay: Antimalarial activity against Plasmodium berghei infected in albino mouse assessed survival against infection at 400 mg/kg, sc administered as single dose; type: functional
[6] = test system: Mycolicibacterium smegmatis; assay: Antimycobacterial activity against DDS sensitive Mycobacterium smegmatis ATCC 607 […]; type: functional
[7] = test system: Mycolicibacterium smegmatis; assay: Antimycobacterial activity against DDS resistant Mycobacterium smegmatis ATCC 607 […]; type: functional
[8] = test system: Mycobacterium leprae; assay: Anti-leprotic activity against Mycobacterium leprae infected in albino mouse assessed survival against infection at 400 mg/kg, sc administered 58 days post-infection and subsequent compound dosing at 200 mg/kg at 0.5, 1 or 2 months interval; type: functional
[9] = Drug excretion in rat urine at 400 mg/kg, sc administered as single dose measured after 30 days; type: ADME, organism-based; conditions: read-out: Drug excretion
[10] = Drug concentration in rat blood at 400 mg/kg, sc administered as single dose; type: ADME, organism-based; conditions: in vivo
[11] = test system: Rattus norvegicus; assay: Effect of metallo-protein haemoglobin in rat assessed as peak methemoglobin level at 400 mg/kg, sc administered as single dose; type: ADME, organism-based; conditions: in vivo
[12] = test system: Mycobacterium leprae; assay: Anti-leprotic activity against Mycobacterium leprae infected in BALB/c mouse assessed as time delay in bacterial multiplication in footpad at 0.0001 g/100g of diet administered via feed starting 60 or 75 day post infection up to 90 days by Shepard's kinetic method; type: functional
[13] = test system: Mycobacterium leprae; assay: (§1) Inhibition of PGL1 synthesis in Mycobacterium leprae infected Swiss Webster mouse macrophages assessed as decrease in [U-14C]PA incorporation at 2 uM preincubated for 4 days post infection followed by [U-14C]PA addition and measured after 7 days by liquid scintillation counter analysis relative to control; type: functional
[14] = test system: Mycobacterium leprae; assay: as §1, with “20” for “2”; type: functional
[15] = test system: Mycobacterium leprae; assay: Anti-leprotic activity against Mycobacterium leprae primary cultures at 4 weeks assessed as ATP level per 10^7 cells at 0.01 mg/L measured by bioluminescence assay (reference value: 314 +/- 46 pg); type: functional
[16] = test system: Mycobacterium leprae; assay: Anti-leprotic activity against Mycobacterium leprae primary cultures at 4 weeks assessed as ATP level per 10^7 cells at 0.025 mg/L measured by bioluminescence assay (reference value: 314 +/- 46 pg); type: functional
[17] = test system: Mycobacterium leprae; assay: Anti-leprotic activity against Mycobacterium leprae primary cultures at 4 weeks assessed as [3H]thymidine uptake per 5 times 10^7 cells at 0.005 mg/L (reference value: 0.95 +/- 0.01 pmol); type: functional
[18] = test system: Mycobacterium leprae; assay: Anti-leprotic activity against Mycobacterium leprae primary cultures at 4 weeks assessed as [3H]thymidine uptake per 5 times 10^7 cells at 0.01 mg/L (reference value: 0.95 +/- 0.01 pmol); type: functional
[19] = test system: Mycobacterium leprae; assay: Anti-leprotic activity against Mycobacterium leprae primary cultures at 4 weeks assessed as [3H]thymidine uptake per 5 times 10^7 cells at 0.025 mg/L (reference value: 0.95 +/- 0.01 pmol); type: functional
[20] = test system: Mycobacterium leprae; assay: Anti-leprotic activity against Mycobacterium leprae subcultures at 4 weeks assessed as ATP level per 10^7 cells at 0.005 mg/L measured by bioluminescence assay (reference value: 462 +/- 64 pg); type: functional
[21] = test system: Mycobacterium leprae; assay: Anti-leprotic activity against Mycobacterium leprae subcultures at 4 weeks assessed as ATP level per 10^7 cells at 0.01 mg/L measured by bioluminescence assay (reference value: 462 +/- 64 pg); type: functional
[22] = test system: Mycobacterium leprae; assay: Anti-leprotic activity against Mycobacterium leprae subcultures at 4 weeks assessed as ATP level per 10^7 cells at 0.025 mg/L measured by bioluminescence assay (reference value: 462 +/- 64 pg); type: functional
[23] = test system: Mycobacterium leprae; assay: Anti-leprotic activity against Mycobacterium leprae subcultures at 4 weeks assessed as [3H]thymidine uptake per 5 times 10^7 cells at 0.005 mg/L (reference value: 1.28 +/- 0.14 pmol); type: functional
[24] = test system: Mycobacterium leprae; assay: Anti-leprotic activity against Mycobacterium leprae subcultures at 4 weeks assessed as [3H]thymidine uptake per 5 times 10^7 cells at 0.01 mg/L (reference value: 1.28 +/- 0.14 pmol); type: functional
[25] = test system: Mycobacterium leprae; assay: Anti-leprotic activity against Mycobacterium leprae subcultures at 4 weeks assessed as [3H]thymidine uptake per 5 times 10^7 cells at 0.025 mg/L (reference value: 1.28 +/- 0.14 pmol); type: functional
[26] = test system: Mycobacterium leprae; assay: Antimicrobial activity against Mycobacterium leprae; type: functional
[27] = test system: Mycobacterium leprae; assay: Anti-leprotic activity against Mycobacterium leprae infected in 538 CBA mouse assessed as number of Mycobacterium leprae in paw pads at 2 mg/kg administrated via gastric tube 5 times a week and measured 7 months post infection; type: functional
[28] = test system: Mycobacterium tuberculosis; assay: Antimycobacterial activity against Mycobacterium tuberculosis H37Rv infected in CF-1 mouse assessed as change in survival time at 11 mg/kg administrated daily for 14 days with food relative to control; type: functional
[29] = test system: Mycobacterium tuberculosis; assay: Antimycobacterial activity against Mycobacterium tuberculosis H37Rv infected in CF-1 mouse assessed as change in survival time at 41 mg/kg administrated daily for 14 days with food relative to control; type: functional
[30] = test system: Mycobacterium tuberculosis; assay: Antimycobacterial activity against Mycobacterium tuberculosis H37Rv infected in CF-1 mouse assessed as change in survival time at 25 mg/kg administrated daily for 14 days with food relative to control; type: functional

Question: With `CCN(CC)C(=S)Sc1ncc([N+](=O)[O-])cc1C#N` as the compound, how does the Activity [1] read?
Answer: 0.56 ×10⁵ No_unit

Question: And the Activity [2]?
Answer: 0.06 ×10⁵ No_unit

Question: What about the Activity [3] of the same compound?
Answer: 0.042 ×10⁷ No_unit

Question: What does the source list for `Nc1ccc(S(=O)(=O)c2ccc(N)cc2)cc1` [DAPSONE]?
Answer: Activity [4]: 334 pg; Survival [5]: <1 weeks; MIC [6]: 8.1 µg/mL (≈ 32.6 µM); MIC [7]: 3220 µg/mL (≈ 13000 µM); Survival [8]: 2 weeks; dose excreted at 720 h [9]: 57%; Drug uptake [10]: 13.8 µg/mL; Activity [11]: 3.9 g/dL; Time [12]: >91 days; inhibition at 2 µM [13]: 92%; inhibition at 20 µM [14]: 91%; Activity [1]: 0.27 ×10⁵ No_unit; Activity [2]: 0.22 ×10⁵ No_unit; Activity [15]: 307 pg; Activity [16]: 0 pg; Activity [17]: 0.98 pmol; Activity [18]: 0.79 pmol; Activity [19]: 0 pmol; Activity [20]: 514 pg; Activity [21]: 396 pg; Activity [22]: 0 pg; Activity [23]: 1.37 pmol; Activity [24]: 0.92 pmol; Activity [25]: 0 pmol; MIC [26]: 15 µg/mL (≈ 60.4 µM); Activity [27]: 0.025 ×10⁷ No_unit

Question: With `c1ccc(/N=N/c2ccc(NCCCN3CCCCC3)c3c2CCCC3)cc1` as the compound, how does the MST [28] read?
Answer: 13 days

Question: What about the MST [29] of the same compound?
Answer: 50 days

Question: And the MST [30]?
Answer: 37 days
